Source: publication PMC7914897, “Cytotoxic Potential of a-Azepano- and 3-Amino-3,4-SeCo-Triterpenoids” (International Journal of Molecular Sciences, 2021)
Where two headings read alike, the source gives them in different places.

Assays:
[1] = system: FaDu (hypopharyngeal carcinoma); assay: SRB cytotoxicity assay, 72 h; type: cell-based, human; conditions: Homo sapiens, cut-off 30 µM, read-out: EC50
Procedure, shortened: (§1)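 EC50 values reflect percent surviving cells versus untreated controls, read at 570 nm after SRB staining of TCA-fixed monolayers. Dosing spanned 0–30 µM over 72 h.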

[2] = system: A2780 (ovarian carcinoma); assay: SRB cytotoxicity assay, 72 h; type: cell-based, human; conditions: Homo sapiens; A2780, 72 h, cut-off 30 µM; read-out: EC50
Procedure, shortened: as §1

[3] = system: A375 (malignant melanoma); assay: SRB cytotoxicity assay, 72 h; type: cell-based, human; conditions: Homo sapiens, A-375, 72 h, A375, 72 h, cut-off 30 µM; read-out: EC50
Procedure, shortened: as §1

MCF-7 (breast carcinoma) = assay: SRB cytotoxicity assay, 72 h; type: cell-based, human; conditions: Homo sapiens, MCF7; MCF-7, 72 h, cut-off 30 µM; read-out: EC50
Procedure, shortened: as §1

[4] = system: HT29 (colorectal carcinoma); assay: SRB cytotoxicity assay, 72 h; type: cell-based, human; conditions: Homo sapiens, HT-29; HT29, 72 h, cut-off 30 µM; read-out: EC50
Procedure, shortened: as §1

SF-268 (CNS cancer) = assay: NCI-60 screen (SRB, 48 h); conditions: Homo sapiens
ACHN (Renal cancer) = assay: NCI-60 screen (SRB, 48 h); conditions: Homo sapiens
PC-3 (Prostate cancer) = assay: NCI-60 screen (SRB, 48 h); conditions: Homo sapiens
UACC-62 (Melanoma) = assay: NCI-60 screen (SRB, 48 h); conditions: Homo sapiens
HS 578T (Breast cancer) = assay: NCI-60 screen (SRB, 48 h); conditions: Homo sapiens
[5] = system: A549/ATCC (NSC lung cancer); assay: NCI-60 screen (SRB, 48 h); conditions: Homo sapiens
[6] = system: NCI-H322M (NSC lung cancer); assay: NCI-60 screen (SRB, 48 h); conditions: Homo sapiens
M14 (Melanoma) = assay: NCI-60 screen (SRB, 48 h); conditions: Homo sapiens
SF-539 (CNS cancer) = assay: NCI-60 screen (SRB, 48 h); conditions: Homo sapiens
SN12C (Renal cancer) = assay: NCI-60 screen (SRB, 48 h); conditions: Homo sapiens
[7] = system: NCI-H23 (NSC lung cancer); assay: NCI-60 screen (SRB, 48 h); conditions: Homo sapiens
TK-10 (Renal cancer) = assay: NCI-60 screen (SRB, 48 h); conditions: Homo sapiens
[8] = system: NIH 3T3 (non-malignant mouse fibroblasts); assay: SRB cytotoxicity assay, 72 h; type: cell-based; conditions: Mus musculus, NIH3T3; NIH 3T3, 72 h, cut-off 30 µM; read-out: EC50
Procedure, shortened: as §1

SW-620 (Colon cancer) = assay: NCI-60 screen (SRB, 48 h); conditions: Homo sapiens
Ovarian Cancer subpanel = assay: NCI-60 screen, subpanel; conditions: Homo sapiens
[9] = system: panel of approximately 60 cancer cell lines; assay: NCI-60 screen (SRB, 48 h), full panel
CAKI-1 (Renal cancer) = assay: NCI-60 screen (SRB, 48 h); conditions: Homo sapiens
OVCAR-8 (Ovarian cancer) = assay: NCI-60 screen (SRB, 48 h); conditions: Homo sapiens
CNS cancer subpanel = assay: NCI-60 screen, subpanel; conditions: Homo sapiens

SMILES: C=C(C)C1CCC2(CO)CCC3(C)C(CCC4C5(C)CCCNC(C)(C)C5CCC43C)C12 (stereo not shown) [Compound 1, Azepanobetulin]
- EC50 [1]: 2.32 ± 0.3 µM
- EC50 [2]: 2.39 ± 0.2 µM
- EC50 [3]: 2.52 ± 0.2 µM
- EC50 (MCF-7 (breast carcinoma)): 1.91 ± 0.1 µM
- EC50 [4]: 1.63 ± 0.3 µM
- GI50 (SF-268 (CNS cancer); SF-268): 1.74 µM
- IC (TGI) (SF-268 (CNS cancer); SF-268, 48 h, read-out: TGI): 3.54 µM
- CC50 (SF-268 (CNS cancer); SF-268, read-out: LC50): 7.19 µM
- GI50 (ACHN (Renal cancer)): 1.7 µM
- IC (TGI) (ACHN (Renal cancer); 48 h, read-out: TGI): 3.09 µM
- CC50 (ACHN (Renal cancer); read-out: LC50): 5.61 µM
- GI50 (PC-3 (Prostate cancer); PC-3): 2.94 µM
- IC (TGI) (PC-3 (Prostate cancer); PC-3, 48 h, read-out: TGI): 2.94 µM
- CC50 (PC-3 (Prostate cancer); PC-3, read-out: LC50): 5.74 µM
- GI50 (UACC-62 (Melanoma); UACC-62): 1.82 µM
- IC (TGI) (UACC-62 (Melanoma); UACC-62, 48 h, read-out: TGI): 3.25 µM
- CC50 (UACC-62 (Melanoma); UACC-62, read-out: LC50): 5.8 µM
- GI50 (HS 578T (Breast cancer)): 1.99 µM
- IC (TGI) (HS 578T (Breast cancer); 48 h, read-out: TGI): 4.79 µM
- CC50 (HS 578T (Breast cancer); read-out: LC50): 31 µM
- GI50 ([5]; A549): 1.73 µM
- IC (TGI) ([5]; A549, 48 h, read-out: TGI): 3.24 µM
- CC50 ([5]; A549, read-out: LC50): 6.08 µM
- GI50 [6]: 1.63 µM
- IC (TGI) ([6]; 48 h, read-out: TGI): 3.03 µM
- CC50 ([6]; read-out: LC50): 5.64 µM
- GI50 (M14 (Melanoma); M14): 1.58 µM
- IC (TGI) (M14 (Melanoma); M14, 48 h, read-out: TGI): 3.13 µM
- CC50 (M14 (Melanoma); M14, read-out: LC50): 6.19 µM
- GI50 (SF-539 (CNS cancer); SF-539): 1.58 µM
- IC (TGI) (SF-539 (CNS cancer); SF-539, 48 h, read-out: TGI): 3.01 µM
- CC50 (SF-539 (CNS cancer); SF-539, read-out: LC50): 5.72 µM
- GI50 (SN12C (Renal cancer)): 1.62 µM
- IC (TGI) (SN12C (Renal cancer); 48 h, read-out: TGI): 3.03 µM
- CC50 (SN12C (Renal cancer); read-out: LC50): 5.69 µM
- GI50 ([7]; NCI-H23): 1.71 µM
- IC (TGI) ([7]; NCI-H23, 48 h, read-out: TGI): 3.39 µM
- CC50 ([7]; NCI-H23, read-out: LC50): 6.68 µM
- GI50 (TK-10 (Renal cancer); TK-10): 1.76 µM
- IC (TGI) (TK-10 (Renal cancer); TK-10, 48 h, read-out: TGI): 3.5 µM
- CC50 (TK-10 (Renal cancer); TK-10, read-out: LC50): 6.96 µM
- EC50 [8]: 1.6 ± 0.4 µM
- GI50 (SW-620 (Colon cancer); SW-620): 1.81 µM
- IC (TGI) (SW-620 (Colon cancer); SW-620, 48 h, read-out: TGI): 3.41 µM
- CC50 (SW-620 (Colon cancer); SW-620, read-out: LC50): 6.44 µM
- IC (TGI) (Ovarian Cancer subpanel; 48 h, read-out: TGI MG_MID): 3.18 µM
- GI50 (Ovarian Cancer subpanel; read-out: GI50 MG_MID): 1.65 µM
- CC50 (Ovarian Cancer subpanel; read-out: LC50 MG_MID): 6.24 µM
- Positive Cytostatic Effect (cell lines with percent growth 0 to 50 / total) ([9]; 1 dose 10 µM): 27/59
- number of cancer cell lines the compound was active against ([9]; 1 dose 10 µM): 28 cell lines
- activity at 10 µM ([9]; Homo sapiens, 48 h, read-out: Mean Growth, %): 20.8%
- activity at 10 µM ([9]; Homo sapiens, 48 h, read-out: Range of Growth, %): -82.5 to 84.4%
- IC (TGI) ([9]; Homo sapiens, 48 h, read-out: TGI MG_MID60, average over all cell lines): 3.34 µM
- GI50 ([9]; Homo sapiens, read-out: GI50 MG_MID60): 1.7 µM
- GI50 ([9]; Homo sapiens, read-out: GI50 against all human tumor cell lines): < 3 µM
- GI50 (CAKI-1 (Renal cancer); CAKI-1): 1.55 µM
- IC (TGI) (CAKI-1 (Renal cancer); CAKI-1, 48 h, read-out: TGI): 2.89 µM
- CC50 (CAKI-1 (Renal cancer); CAKI-1, read-out: LC50): 5.4 µM
- GI50 (OVCAR-8 (Ovarian cancer); OVCAR-8): 1.83 µM
- IC (TGI) (OVCAR-8 (Ovarian cancer); OVCAR-8, 48 h, read-out: TGI): 3.51 µM
- CC50 (OVCAR-8 (Ovarian cancer); OVCAR-8, read-out: LC50): 6.73 µM
- IC (TGI) (CNS cancer subpanel; 48 h, read-out: TGI MG_MID): 3.15 µM
- GI50 (CNS cancer subpanel; read-out: GI50 MG_MID): 1.65 µM
- CC50 (CNS cancer subpanel; read-out: LC50 MG_MID): 5.98 µM
